Data set [1] can be described thus: Body weight of treated mice. It counts as in vivo. Particulars: mouse, in vivo. How it is done: For therapeutic efficacy, mice were randomly assigned into experimental groups (five mice per group) when tumors reached a volume of […]. For celecoxib and/or VP treatment, celecoxib (5 mg/kg) was administered via intraperitoneal (i.p.) injection once a day (17), and VP (50 mg/kg) was administered via i.p. every other day (18). EP4 antagonist ONO-AE3-208 (10 mg/kg) was administered via i.p. once a day (19). Control was applied with same volume (10 μL per injection) of 10% dimethyl sulphoxide in 1% TWEEN 80 (Sigma-Aldrich). For GEM and CDDP (GC) treatment (i.p.), CDDP (6 mg/kg) was only applied after the first GEM (60 mg/kg) treatment on day 2, followed by three consecutive treatments of GEM on day 5, 8 and 11 (17). The next cycle was started on day 18, and the treatment was continued until tumor reached 2 cm in diameter. For erlotinib treatment, the mice were treated once a day, 6 days per week, by oral gavage with erlotinib (100 mg/kg) or control (PBS containing 0.5% methyl cellulose (Sigma-Aldrich) and 0.1% TWEEN 80) (20). Tumor size was measured at least every three days. Therapeutic efficacy was assessed using percentage change after treatment related to tumor size before treatment. […]

The next data set has as its system SOX2. The experiment in a line: Western blotting / flow cytometry of SOX2 expression in bladder cancer cells. The format is cell-based, human. As to the method:
(§1) Whole cell lysates were extracted using RIPA buffer (Thermo Scientific) supplemented with 10 μL/mL Halt™ Protease Inhibitor Cocktail Kit (Life Technologies) and 30 μL/mL Halt™ Phosphatase Inhibitor Cocktail Kit (Life Technologies). The protein concentrations were determined using a Pierce™ BCA Protein Assay Kit (Life Technologies), and the protein were separated on. NuPAGE 4-12% Bis-Tris Gel (Life Technologies) according to the manufacturer's protocol. COX2 (D5H5), NANOG (D73G4), OCT4 (D7O5Z), CD133 (A3G6K), Snail (C15D3), ZEBI (D80D3), Vimentin (D21H3), CDH2 (D4R1H), CDH1 (24E10), p-EGFR (D7A5), EGFR (D38B1), p-AKT (D9E), AKT (cat #, 9272), p-ERK (D13.14.4E), ERK (137F5), p-YAP1 (D9W2I), p-Src (cat #, 2101), Src (36D10), DNMT1 (D63A6), DNMT3A (D23G1), and DNMT3B (D7070) antibodies were obtained from Cell Signaling Technology (Danvers, Mass., USA), except for SOX2 (EPR3131; Abeam, Cambridge, USA), YAP1 (ab52771; Abeam), CD24 (cat #, AF5247-SP; R&D Systems, Minneapolis USA) and β-actin (A2228; Sigma-Aldrich). Secondary horseradish peroxidase (HRP)-conjugated antibodies were obtained from Cell Signaling Technology, and chemiluminescent detection of HRP-labeled antibodies was performed using Amersham ECL Prime Western Blotting Detection Reagent (GE Healthcare, Piscataway, USA). As loading control, β-actin was used.
For extracellular staining, cells (1×10^6/100 μL stain buffer) were incubated with PE-Vio770-conjugated anti-human CD133 (293C3; Miltenyi Biotec, Auburn, USA) or PE-conjugated anti-human CD24 antibody (cat #, 560991; BD Biosciences) for 30 min at 4° C. in dark. PE-Vio770-conjugated anti-IgG1κ Isotype (cat #, 130-098-563; Miltenyi Biotec) and PE-conjugated IgG2a, κ Isotype (cat #, 555574; BD Biosciences) were used as control for CD133 and CD24 staining, respectively. Staining for intracellular SOX2 was carried out using the BD Cytofix/Cytopem Fixation/Permeabilization Kit (BD Biosciences) according to manufacturer's protocol. The cells were incubated with Alexa Fluor 647-conjugated anti-SOX2 antibody (cat #, 560302; BD Biosciences) for 40 min at 4° C. in dark. Alexa Fluor 647-conjugated anti-IgG2a, κ Isotype (cat #, 558053; BD Biosciences) was used as control. Data were acquired on a BD FACSCalibur flow cytometer (BD Biosciences) using BD CellQuest Pro software (BD Biosciences) and analyzed with FlowJo software v10.1 (Tree Star, Ashland, USA).
Background: Immunoblotting shows a protein as a band on a membrane.

The subject of a further data set is COX2. The experiment in a line: Western blotting of COX2 expression in bladder cancer cells. The format is cell-based, human. How it is done: as §1
In data set [2] the test system is bladder cancer cells (urothelial CSCs). The experiment in a line: Sphere formation assay. Particulars: for sphere-forming ability / sphere formation: COX2 inhibitor or EP4 antagonist alone. It counts as cell-based, human. As to the method: Sphere formation was induced by culturing cells (2×10^4/well) in […] F12 50/50 Mix (Mediatech) supplemented with B-27 (Life Technologies), 20 ng/mL FGF-basic (Peprotech), 20 ng/mL EGF (Peprotech). Cell culture was performed in ultra-low attachment 6 well plates (Corning, Lowell, USA) for 10 days. The medium was replaced every other day. Sphere formation was evaluated using the inverted phase-contrast microscope, and single sphere with a diameter larger than 100 gm was counted using NIS-Elements Microscope Imaging Software. To redifferentiate spheres, spheres were plated in standard growth medium with 10% FBS in dishes supporting cell attachment, and incubated for 7 days. For self-renewal assay, primary spheres were collected by gentle centrifugation (5 min at 400×g), dissociated with Stempro Accutase Cell Dissociation Reagent (Life Technologies), and mechanically disrupted with a pipette. The cell suspension was sieved through 40 μm cell strainer cap filter to achieve a single-cell suspension, and then equal numbers of alive cells were plated in ultralow attachment plates to generate the second spheres. Again, spheres were counted on day 14 and digested to generate the third Spheres. All the experiments were performed in triplicate and repeated at least three times.

The subject of data set [3] is panel of miRNAs in BFTC 905 cells. The experiment in a line: Expression of a panel of miRNAs. The format is cell-based, human. Particulars: addition of PGE2 to COX2 inhibitor. How it is done: (§2) Total RNA from cell lines was isolated using the RNeasy Plus Mini kit (Qiagen, Valencia, USA) according to the manufacturer's protocol. Total RNA extraction from bladder tissue was performed with the QIAzol Lysis Reagent (Qiagen) followed by phenol extraction and ethanol precipitation. Total RNA was eluted in DEPC treated water and stored at −80 ° C. Total RNA extraction from urine was performed using the MirVana miRNA Isolation Kit (Ambion, Austin, USA). These total RNA were converted to cDNA using the SuperScript III First-Strand Synthesis System (Life technologies, Carlsbad, USA), which was then used as a template for Q-RT-PCR. Q-RT-PCR was performed using the Fast SYBR Green Master Mix (Thermo Fisher Scientific, Waltham, USA) on a 7900HT Fast Real-Time PCR System (Life technologies) in triplicate. Micro RNA (miRNA) extraction was performed using the MirVana miRNA Isolation Kit, and was reverse transcribed using TaqMan reverse transcription kit (Applied Biosystems, Foster City, USA) and miRNA-specific RT primers provided with TaqMan microRNA assays (Applied Biosystems). Q-RT-PCR for miRNAs was performed using the TaqMan Universal PCR Master Mix according to the manufacturer's protocol. SDS software (Applied Biosystems) was used to determine cycle threshold (Ct) values. Expression level was quantified relative to β-actin for mRNA and RNU6B for miRNA using the 2-ΔΔCt method (12).

Data set [4] relates to let-7 host gene MIRLET7BHG promoter. The experiment in a line: Bisulfite sequencing of let-7 host gene promoter methylation. It counts as cell-based, human. The conditions noted are these: 10 μM celecoxib, 2 μM PGE2, or 5 μM 5-Aza-dC for 5 days. How it is done: Cell pellets were digested with 1% sodium dodecyl sulfate and 50 μg/mL proteinase K (Roche, Nutley, USA) at 48° C. overnight. Isolation of genomic DNA from cell lines was performed with the phenol-chloroform extraction protocol followed by ethanol precipitation. Bisulfite treatment was conducted using an EpiTect Bisulfite K ft (QIAGEN, Valencia, USA), and was subsequently amplified via PCR using primers as shown in the following table. PCR products were purified using the QIAquick Gel Extraction kit (Qiagen), and sequenced by Genewiz DNA sequencing service (Genewiz, South Plainfield, USA). The data were analyzed using the Sequence Scanner v1.0 software (Life technologies). A methylation frequency of ≥50% of total CpG sites within the amplified region was considered “methylation-positive”. For demethylation, cells ([…]) dissolved in 50% acetic acid or were mock-treated with phosphate buffered saline (PBS) including the same amount of acetic acid every 24 hours for 5 days. When combined with the histone deacetylase inhibitor TSA (Sigma), 300 nmol/L TSA was added to the medium for the final 24 hours.

The next data set relates to DNMT 1 and 3A. The experiment in a line: Western blotting of DNMTs. It counts as cell-based, human. The conditions noted are these: PGE2-treated cells. How it is done: as §1
In a further data set the test system is let-7. The experiment in a line: let-7 expression by Q-RT-PCR. The format is cell-based, human. The conditions noted are these: parental or spheroid bladder cancer cells. As to the method:
as §2
For demethylation, cells (1×10^6/T-75 flask) were treated with […] of the demethylating agent 5-Aza-dC (Sigma) dissolved in 50% acetic acid or were mock-treated with phosphate buffered saline (PBS) including the same amount of acetic acid every 24 hours for 5 days. When combined with the histone deacetylase inhibitor TSA (Sigma), 300 nmol/L TSA was added to the medium for the final 24 hours.

The subject of another data set is YAP1. The experiment in a line: Western blotting of YAP1 expression in bladder cancer cells. It counts as cell-based, human. As to the method: as §1
[5] abbreviates: COX2 inhibitor or EP4 antagonist alone (FIG. 2A-B, S7).
[6] abbreviates: addition of PGE2 to celecoxib treatment.

The source of these data is US20220184037A1, “PHARMACEUTICAL AGENTS TARGETING CANCER STEM CELLS” (THE JOHNS HOPKINS UNIVERSITY, priority 2020, published 2022).

Take `C=Cc1c(C)c2cc3nc(cc4[nH]c(cc5nc(cc1[nH]2)C(C)=C5CCC(=O)O)c(CCC(=O)OC)c4C)[C@@]1(C)C3=CC=C(C(=O)OC)[C@H]1C(=O)OC` [VP, 3-[(23S,24R)-14-ethenyl-5-(3-methoxy-3-oxopropyl)-22,23-bis(methoxycarbonyl)-4,10,15,24-tetramethyl-25,26,27,28-tetraazahexacyclo[16.6.1.1^3,6.1^8,11.1^13,16.0^19,24]octacosa-1,3,5,7,9,11(27),12,14,16,18(25),19,21-dodecaen-9-yl]propanoic acid]: the body weight loss result in data set [1] was “did not observe body weight loss”. For the same molecule, the “expression of SOX2 and its related molecules” value with SOX2 (VP alone) is “reduced expression”. Further, the COX2 expression result in the data set on COX2 (VP alone) is reported as “induced COX2 expression in a dose-dependent manner”.

For the molecule `CCc1cccc2c3c([nH]c12)C(CC)(CC(=O)O)OCC3` (stereo not shown) [etodolac, Etodolac], the “sphere-forming ability / sphere formation” value in data set [2] was “dramatic reduction”. In addition, the SOX2 expression result in the data set with SOX2 (setting [5]) is listed as “dramatic reduction”.

Take `CCCCC[C@H](O)/C=C/[C@H]1[C@H](O)CC(=O)[C@@H]1C/C=C\CCCC(=O)O` [PGE2, Prostaglandin E2]: the “expression of several miRNAs” value in [3] was “reduced these expression”. For the same molecule, the “promoter methylation of the let-7 host gene” value in data set [4] is reported as “Promoter methylation of the let-7 host gene was observed”. In the data set with DNMT 1 and 3A, the “DNMT 1 and 3A expression” value is “upregulated”. In addition, in data set [2] (setting [6]), the celecoxib-repressed sphere-forming ability result is “restored”. Further, in the data set on SOX2 (setting [6]), the “celecoxib-repressed SOX2 expression” value was “restored”. Moreover, the let-7 expression result in the data set on let-7 is given as “reduced its expression”.

On to “EGF: Recombinant human epidermal growth factor”, for which, in the data set with YAP1 (EGF-stimulated EGFR signaling), the YAP1 expression entry was “increased”. Besides, the SOX2 expression result with SOX2 (EGF-stimulated EGFR signaling) is “increased”.

For the molecule `CC(C(=O)Nc1cc(C#N)ccc1CCCC(=O)O)c1ccc(F)c2ccccc12` (stereo not shown) [EP4-specific antagonist, ONO-AE3-208], the “sphere-forming ability / sphere formation” value in [2] is on record as “dramatic reduction”. For the same molecule, the SOX2 expression result with SOX2 (setting [5]) is given as “dramatic reduction”.

For the molecule `N.N.[Cl][Pt][Cl]` [cisplatin, Cisplatin], the sphere formation entry in [2] (CDDP chemotherapy alone) is “increased sphere formation”. For the same molecule, the YAP1 expression result in the data set on YAP1 (CDDP chemotherapy alone) is given as “overexpression”. Besides, the SOX2 expression result in the data set on SOX2 (CDDP chemotherapy alone) is recorded as “overexpression”. For the same molecule, the COX2 expression entry in the data set with COX2 (CDDP chemotherapy alone) is listed as “overexpression”.

For the molecule `CC(C)(C)n1nc(-c2ccc(Cl)cc2)c2c(N)ncnc21` [Src inhibitor, PP2], in the data set on YAP1 (treatment with the Src inhibitor (FIG. S8H)), the “COX2 inhibitor-induced YAP1 expression” value is given as “downregulated”.

Consider `Nc1ncn([C@H]2C[C@H](O)[C@@H](CO)O2)c(=O)n1` [5-Aza-dC, 5-Aza-2′-deoxycytidine], for which the “promoter methylation of the let-7 host gene” value in [4] is “demethylated”. Further, the let-7 expression result with let-7 was “restoration of let-7 expression”.
